Source: article PMC9503459, “Antifungal Activity, Structural Stability, and Immunomodulatory Effects on Human Immune Cells of Defensin from the Lentil Lens culinaris” (Membranes, 2022)
No end group written: not given here.

Assays:
[1] = test system: THP-1 cells; assay: Resazurin-based cytotoxicity assay, THP-1; assay type: cell-based, human; conditions: 0.2 to 50 μM, 24 h
Method: The cytotoxic properties of Lc-def and melittin as a control were investigated also by resazurin-based cell cytotoxicity assay. PBMCs and THP-1 cells were seeded in 96-well plates at 2 × 10^6 and 1 × 10^6 cells per well, respectively, in RPMI-1640 supplemented with 10% FBS, and kept in CO2-incubator. After 24 h serial two-fold dilutions of compounds in culture medium were then added to final concentrations from 0.2 to 50 μM. After 24 h of incubation with the peptides, resazurin (Sigma) was added at a final concentration of 0.7 mM, and the plates were incubated overnight (16 h). Fluorescent resorufin was registered using 535/595 filter at PlateReader AF2200 (Eppendorf, Hamburg, Germany). Untreated corresponding cells were used as negative controls. The cell viability was calculated as: cell viability (%) = (Fsample/Fcontrol) × 100%. The experiment was carried out twice in triplicate.

[2] = test system: polarized Caco-2 monolayer; assay: Cytokine response by multiplex xMAP, Caco-2; assay type: cell-based, human; conditions: 2 µM, 24 h
Method: Colorectal adenocarcinoma Caco-2 cell line (ATCC HTB-37) was cultured in complete DMEM/F12 (1:1) medium containing 10% fetal bovine serum (FBS, Gibco) and 1X antibiotic-antimycotic solution (1XAAS, Invitrogen, Waltham, MA, USA). The acute monocytic leukemia THP-1 line (ATCC TIB-202) was cultured in complete RPMI-1640 medium, containing 10% FBS, 1XAAS, and […]. THP-1 cells were differentiated into pro-inflammatory macrophages (Mφ1) with phorbol 12-myristate 13-acetate (Sigma-Aldrich) for 24 h and subsequently polarized with lipopolysaccharide from E. coli (Sigma-Aldrich) and rhIFN-γ (Sigma-Aldrich) for another 48 h according to previously reported protocol. All cells were cultured in a humidified CO2 incubator (5% CO2, 37 °C). Primary peripheral blood mononuclear cells (PBMCs) collected from a healthy donor were purchased from American Type Culture Collection (ATCC PCS-800-011). CD4^+ T-helper and CD8^+ T cytotoxic cells were isolated from PBMCs by magnetic separation with mouse anti-human CD4-PE (clone 13B8.2, Beckman Coulter Diagnostics, Pasadena, CA, USA) and CD8-PE (clone REA734, Miltenyi Biotec, Bergisch Gladbach, Germany), Anti-PE MicroBeads (Miltenyi Biotec), and LS Separation Columns (Miltenyi Biotec). Isolated CD4^+ and CD8^+ cells were expanded separately with Dynabeads™ Human T-Expander CD3/CD28 (Gibco, Waltham, MA, USA) in RPMI-1640 supplemented with 10% FBS, 1XAAS and 100 U/mL rh-IL-2 (Gibco). Regulatory CD4^+ FoxP3^+ T cells (Tregs) were isolated from PBMCs by magnetic separation with CD4^+CD25^+ Regulatory T Cell Isolation Kit, human (Miltenyi Biotec). Primary CD14^+ blood monocytes were isolated from PBMCs by adherence according to standard technique. Monocyte-derived mature dendritic cells (moDCs) were obtained from CD14^+ blood monocytes according to the previously reported protocol. Briefly, blood monocytes were incubated in complete RPMI-1640 medium, containing 10% FBS, 1XAAS, 800 U/mL rhGM-CSF (Sci-Store, Russia, Moscow) and 500 U/mL rhIL-4 (Sci-Store) for 3 days. Fresh complete RPMI-1640 medium with rhGM-CSF and rhIL-4 was added to the culture on day 3. On day 5, fresh complete RPMI-1640 containing 100 U/mL rhTNF-α (Sigma) as well as 800 U/mL rhGM-CSF and 500 U/mL rhIL-4 was added and the culture was incubated for another 4 days until full maturation.
Caco-2 cells were seeded into the wells of a 48-well plate, coated with 0.1% bovine collagen (Sigma-Aldrich) for 24 h, 3 weeks before the experiment with complete DMEM/F12 (1:1) medium renewal every 2–3 days. Monocytes, moDCs, CD4^+ T-helper and CD8^+ T cytotoxic cells, Mφ1, and Regulatory CD4^+ FoxP3^+ T cells were seeded into the wells of 48-well plates in the complete RPMI-1640 medium supplemented with 10% Human AB serum (HABS, Capricorn Scientific, Ebsdorfergrund, Germany) and 1XAAS 24 h prior to the experiment; medium in Caco-2-containing wells was also replaced with the same medium. After 24 h, half of the medium in each well was replaced by fresh complete RPMI-1640 medium with 10% HABS, supplemented with 4 µM of Lc-def for the sample wells or fresh medium alone for the control wells. Cell cultures were kept in CO2-incubator (5% CO2, 37 °C) for another 24 h. Culture supernatants were collected 24 h later and stored at −70 °C degrees less than one month prior to the analytes assessment. […]

Lc-def: defensin from lentil Lens culinaris seeds (UniProt:B3F051), recombinant, overexpressed in Escherichia coli (KTCENLSDSFKGPCIPDGNCNKHCKEKEHLLSGRCRDDFRCWCTRNC; disulfide (positions not given here); ends not checked; also: disulfide bonds present, pairing not given here; UniProt B3F051 28-74, looked up)
cytotoxic activity [1]: did not show any cytotoxic activity | EGF ([2]; Caco-2 monolayer): <1.95↓ pg/ml | Eotaxin ([2]; Caco-2 monolayer): <3.23↓ pg/ml | FGF-2 ([2]; Caco-2 monolayer): 19.54 pg/mL | FLT-3L ([2]; Caco-2 monolayer): <0.45↓ pg/ml | Fractalkine ([2]; Caco-2 monolayer): <23.19↓ pg/ml | G-CSF ([2]; Caco-2 monolayer): <2.57↓ pg/ml | GM-CSF ([2]; Caco-2 monolayer): <1.36↓ pg/ml | GROa ([2]; Caco-2 monolayer): 21.87 pg/mL | IFNa2 ([2]; Caco-2 monolayer): <4.43↓ pg/ml | IFNg ([2]; Caco-2 monolayer): <1.99↓ pg/ml | IL-1RA ([2]; Caco-2 monolayer): <0.83↓ pg/ml | IL-1a ([2]; Caco-2 monolayer): <3.64↓ pg/ml | IL-1b ([2]; Caco-2 monolayer): <18.72↓ pg/ml | IL-2 ([2]; Caco-2 monolayer): <0.31↓ pg/ml | IL-3 ([2]; Caco-2 monolayer): <0.48↓ pg/ml | IL-4 ([2]; Caco-2 monolayer): 11.31 pg/mL | IL-5 ([2]; Caco-2 monolayer): <0.24↓ pg/ml | IL-6 ([2]; Caco-2 monolayer): 1.45 pg/mL | IL-7 ([2]; Caco-2 monolayer): <0.33↓ pg/ml | IL-8 ([2]; Caco-2 monolayer): 7.94 pg/mL | IL-9 ([2]; Caco-2 monolayer): 11.08 pg/mL | IL-10 ([2]; Caco-2 monolayer): <0.68↓ pg/ml | IL-12 (p40) ([2]; Caco-2 monolayer): <3.02↓ pg/ml | IL-12 (p70) ([2]; Caco-2 monolayer): <1.48↓ pg/ml | IL-13 ([2]; Caco-2 monolayer): 42.42 pg/mL | IL-15 ([2]; Caco-2 monolayer): <1.45↓ pg/ml | IL-17A ([2]; Caco-2 monolayer): <1.55↓ pg/ml | IL-17E/IL-25 ([2]; Caco-2 monolayer): <20.59↓ pg/ml | IL-17F ([2]; Caco-2 monolayer): <16.96↓ pg/ml | IL-18 ([2]; Caco-2 monolayer): <0.35↓ pg/ml | IL-22 ([2]; Caco-2 monolayer): 51.96 pg/mL | IL-27 ([2]; Caco-2 monolayer): <8.55↓ pg/ml | IP-10 ([2]; Caco-2 monolayer): 29.22 pg/mL | M-GSF ([2]; Caco-2 monolayer): <23.75↓ pg/ml | MCP-1 ([2]; Caco-2 monolayer): <1.52↓ pg/ml | MCP-3 ([2]; Caco-2 monolayer): 12.67 pg/mL | MDC ([2]; Caco-2 monolayer): <0.35↓ pg/ml | MIG ([2]; Caco-2 monolayer): <3.43↓ pg/ml | MIP-1a ([2]; Caco-2 monolayer): <1.76↓ pg/ml | MIP-1b ([2]; Caco-2 monolayer): <1.92↓ pg/ml | PDGF-AA ([2]; Caco-2 monolayer): 541.87 pg/mL | PDGF-AB/BB ([2]; Caco-2 monolayer): 188.6 pg/mL | RANTES ([2]; Caco-2 monolayer): <0.67↓ pg/ml | TGF-a ([2]; Caco-2 monolayer): <0.66↓ pg/ml | TNFa ([2]; Caco-2 monolayer): <3.91↓ pg/ml | TNFb ([2]; Caco-2 monolayer): 21.23 pg/mL | VEGFa ([2]; Caco-2 monolayer): 2653 pg/mL | sCD40L ([2]; Caco-2 monolayer): <6.66↓ pg/ml | effect on cytokine production ([2]; polarized Caco-2 monolayer): no effect
